# Measured values published in the supplement of paper PMC10307832.
# How the values were obtained:
# Experiment in all cases: relative viability (nuclei count vs DMSO), 5 days (fraction); higher = more cells survive
# [1] = compound: COc1ccc(-c2ccc3c(N4CCOC[C@@H]4C)nc(N4CCOC[C@@H]4C)nc3n2)cc1CO [AZD8055]
# Method in brief: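 On vehicle-anchored 1536-well plates, lung cancer cell lines held overnight at 37 °C were pinned with five library-drug doses (not always all listed) spaced by √10. With no medium change over 5 days, they were then fixed, permeabilised and Hoechst-stained in one step and imaged at 4×. MetaXpress counted nuclei, and viability is the median across plates of treated-well over vehicle-well nuclei. Acceptance needed control CV below 25% and at least one doubling.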
# [2] = compound: COc1ccc(-c2ccc3c(N4CCOC[C@@H]4C)nc(N4CCOC[C@@H]4C)nc3n2)cc1CO [AZD8055] + CC(C)C[C@H](NC(=O)[C@H](Cc1ccccc1)NC(=O)c1cnccn1)B(O)O [Bortezomib] (partner 0.002 µM)
# Method in brief: (§1)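 One day after seeding in 1536-well plates, lung cancer cell lines were dosed by pin tool. Dosing was either single-drug or a fixed anchor-drug dose plus five library-drug doses (not always all listed) in √10 steps. After 5 days, nuclei were stained in one fix-and-stain step and counted on 4× images, and relative viability is the nuclei count of treated wells over that of vehicle wells, given as the median of duplicate plates.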
# [3] = compound: COc1ccc(-c2ccc3c(N4CCOC[C@@H]4C)nc(N4CCOC[C@@H]4C)nc3n2)cc1CO [AZD8055] + O=C(c1cc(Cc2n[nH]c(=O)c3ccccc23)ccc1F)N1CCN(C(=O)C2CC2)CC1 [Olaparib] (partner 8 µM)
# Method in brief: as §1
# [4] = compound: COc1ccc(-c2ccc3c(N4CCOC[C@@H]4C)nc(N4CCOC[C@@H]4C)nc3n2)cc1CO [AZD8055] + CS(=O)(=O)CCNCc1ccc(-c2ccc3ncnc(Nc4ccc(OCc5cccc(F)c5)c(Cl)c4)c3c2)o1 [Lapatinib] (partner 2 µM)
# Method in brief: as §1
# [5] = compound: COc1ccc(-c2ccc3c(N4CCOC[C@@H]4C)nc(N4CCOC[C@@H]4C)nc3n2)cc1CO [AZD8055] + COc1cc2c(Oc3ccc(NC(=O)C4(C(=O)Nc5ccc(F)cc5)CC4)cc3F)ccnc2cc1OCCCN1CCOCC1 [Foretinib] (partner 0.25 µM)
# Method in brief: as §1
# [6] = compound: COc1ccc(-c2ccc3c(N4CCOC[C@@H]4C)nc(N4CCOC[C@@H]4C)nc3n2)cc1CO [AZD8055] + C[C@@H](Oc1cc(-c2cnn(C3CCNCC3)c2)cnc1N)c1c(Cl)ccc(F)c1Cl [Crizotinib] (partner 1 µM)
# Method in brief: as §1
# [7] = compound: COc1ccc(-c2ccc3c(N4CCOC[C@@H]4C)nc(N4CCOC[C@@H]4C)nc3n2)cc1CO [AZD8055] + CC1(C)CCC(c2ccc(Cl)cc2)=C(CN2CCN(c3ccc(C(=O)NS(=O)(=O)c4ccc(N[C@H](CCN5CCOCC5)CSc5ccccc5)c(S(=O)(=O)C(F)(F)F)c4)cc3)CC2)C1 [Navitoclax] (partner 0.5 µM)
# Method in brief: as §1
# [8] = compound: COc1ccc(-c2ccc3c(N4CCOC[C@@H]4C)nc(N4CCOC[C@@H]4C)nc3n2)cc1CO [AZD8055] + C[C@]1(O)C[C@@H](c2nc(-c3ccc4ccc(-c5ccccc5)nc4c3)c3c(N)nccn32)C1 [Linsitinib] (partner 1 µM)
# Method in brief: as §1
# [9] = compound: COc1ccc(-c2ccc3c(N4CCOC[C@@H]4C)nc(N4CCOC[C@@H]4C)nc3n2)cc1CO [AZD8055] + Cc1nc(NC(=O)N2CCC[C@H]2C(N)=O)sc1-c1ccnc(C(C)(C)C(F)(F)F)c1 [Alpelisib] (partner 2 µM)
# Method in brief: as §1
# [10] = compound: COc1ccc(-c2ccc3c(N4CCOC[C@@H]4C)nc(N4CCOC[C@@H]4C)nc3n2)cc1CO [AZD8055] + CS(=O)(=O)N1CCN(Cc2cc3nc(-c4cccc5[nH]ncc45)nc(N4CCOCC4)c3s2)CC1 [Pictilisib] (partner 1 µM)
# Method in brief: as §1
# [11] = compound: COc1ccc(-c2ccc3c(N4CCOC[C@@H]4C)nc(N4CCOC[C@@H]4C)nc3n2)cc1CO [AZD8055] + N=C(N)NC(=N)NCCc1ccccc1 [Phenformin] (partner 250 µM)
# Method in brief: as §1
# [12] = compound: COc1ccc(-c2ccc3c(N4CCOC[C@@H]4C)nc(N4CCOC[C@@H]4C)nc3n2)cc1CO [AZD8055] + Nc1ncn([C@H]2C[C@H](O)[C@@H](CO)O2)c(=O)n1 [Decitabine] (partner 2 µM)
# Method in brief: as §1
cell line,measurement,setting,value
Calu-6,relative viability,[1]; 0.01 µM,1.13
same,relative viability,[1]; 0.03162 µM,0.991
same,relative viability,[1]; 0.1 µM,0.835
same,relative viability,[1]; 0.3162 µM,0.621
same,relative viability,[1]; 1 µM,0.449
same,relative viability,[2]; first compound 0.01 µM,1.04
same,relative viability,[2]; first compound 0.03162 µM,0.917
same,relative viability,[2]; first compound 0.1 µM,0.824
same,relative viability,[2]; first compound 0.3162 µM,0.489
same,relative viability,[2]; first compound 1 µM,0.457
same,relative viability,[3]; first compound 0.01 µM,0.716
same,relative viability,[3]; first compound 0.03162 µM,0.616
same,relative viability,[3]; first compound 0.1 µM,0.505
same,relative viability,[3]; first compound 0.3162 µM,0.478
same,relative viability,[3]; first compound 1 µM,0.362
same,relative viability,[4]; first compound 0.01 µM,1.22
same,relative viability,[4]; first compound 0.03162 µM,0.926
same,relative viability,[4]; first compound 0.1 µM,0.816
same,relative viability,[4]; first compound 0.3162 µM,0.718
same,relative viability,[4]; first compound 1 µM,0.485
same,relative viability,[5]; first compound 0.01 µM,0.878
same,relative viability,[5]; first compound 0.03162 µM,0.839
same,relative viability,[5]; first compound 0.1 µM,0.691
same,relative viability,[5]; first compound 0.3162 µM,0.439
same,relative viability,[5]; first compound 1 µM,0.346
same,relative viability,[6]; first compound 0.01 µM,1.03
same,relative viability,[6]; first compound 0.03162 µM,0.699
same,relative viability,[6]; first compound 0.1 µM,0.556
same,relative viability,[6]; first compound 0.3162 µM,0.42
same,relative viability,[6]; first compound 1 µM,0.322
same,relative viability,[7]; first compound 0.01 µM,0.886
same,relative viability,[7]; first compound 0.03162 µM,0.792
same,relative viability,[7]; first compound 0.1 µM,0.621
same,relative viability,[7]; first compound 0.3162 µM,0.32
same,relative viability,[7]; first compound 1 µM,0.313
same,relative viability,[8]; first compound 0.01 µM,1.09
same,relative viability,[8]; first compound 0.03162 µM,0.77
same,relative viability,[8]; first compound 0.1 µM,0.637
same,relative viability,[8]; first compound 0.3162 µM,0.356
same,relative viability,[8]; first compound 1 µM,0.329
same,relative viability,[9]; first compound 0.01 µM,0.911
same,relative viability,[9]; first compound 0.03162 µM,0.69
same,relative viability,[9]; first compound 0.1 µM,0.524
same,relative viability,[9]; first compound 0.3162 µM,0.399
same,relative viability,[9]; first compound 1 µM,0.339
same,relative viability,[10]; first compound 0.01 µM,0.826
same,relative viability,[10]; first compound 0.03162 µM,0.737
same,relative viability,[10]; first compound 0.1 µM,0.531
same,relative viability,[10]; first compound 0.3162 µM,0.4
same,relative viability,[10]; first compound 1 µM,0.366
A549,relative viability,[1]; 0.01 µM,1
same,relative viability,[1]; 0.03162 µM,0.83
same,relative viability,[1]; 0.1 µM,0.639
same,relative viability,[1]; 0.3162 µM,0.19
same,relative viability,[1]; 1 µM,0.106
same,relative viability,[3]; first compound 0.01 µM,0.279
same,relative viability,[3]; first compound 0.03162 µM,0.359
same,relative viability,[3]; first compound 0.1 µM,0.21
same,relative viability,[3]; first compound 0.3162 µM,0.142
same,relative viability,[3]; first compound 1 µM,0.0857
same,relative viability,[4]; first compound 0.01 µM,0.801
same,relative viability,[4]; first compound 0.03162 µM,0.651
same,relative viability,[4]; first compound 0.1 µM,0.404
same,relative viability,[4]; first compound 0.3162 µM,0.307
same,relative viability,[4]; first compound 1 µM,0.122
same,relative viability,[5]; first compound 0.01 µM,0.929
same,relative viability,[5]; first compound 0.03162 µM,0.831
same,relative viability,[5]; first compound 0.1 µM,0.638
same,relative viability,[5]; first compound 0.3162 µM,0.123
same,relative viability,[5]; first compound 1 µM,0.0603
same,relative viability,[6]; first compound 0.01 µM,0.674
same,relative viability,[6]; first compound 0.03162 µM,0.689
same,relative viability,[6]; first compound 0.1 µM,0.324
same,relative viability,[6]; first compound 0.3162 µM,0.231
same,relative viability,[6]; first compound 1 µM,0.0846
same,relative viability,[11]; first compound 0.01 µM,0.175
same,relative viability,[11]; first compound 0.03162 µM,0.155
same,relative viability,[11]; first compound 0.1 µM,0.1
same,relative viability,[11]; first compound 0.3162 µM,0.0798
same,relative viability,[11]; first compound 1 µM,0.0524
same,relative viability,[7]; first compound 0.01 µM,1.21
same,relative viability,[7]; first compound 0.03162 µM,0.74
same,relative viability,[7]; first compound 0.1 µM,0.454
same,relative viability,[7]; first compound 0.3162 µM,0.189
same,relative viability,[7]; first compound 1 µM,0.143
same,relative viability,[8]; first compound 0.01 µM,0.552
same,relative viability,[8]; first compound 0.03162 µM,0.382
same,relative viability,[8]; first compound 0.1 µM,0.246
same,relative viability,[8]; first compound 0.3162 µM,0.11
same,relative viability,[8]; first compound 1 µM,0.0862
same,relative viability,[12]; first compound 0.01 µM,0.389
same,relative viability,[12]; first compound 0.03162 µM,0.101
same,relative viability,[12]; first compound 0.1 µM,0.184
same,relative viability,[12]; first compound 0.3162 µM,0.13
same,relative viability,[12]; first compound 1 µM,0.101
same,relative viability,[9]; first compound 0.01 µM,0.524
same,relative viability,[9]; first compound 0.03162 µM,0.373
same,relative viability,[9]; first compound 0.1 µM,0.223
same,relative viability,[9]; first compound 0.3162 µM,0.0986
same,relative viability,[9]; first compound 1 µM,0.109
same,relative viability,[10]; first compound 0.01 µM,0.395
same,relative viability,[10]; first compound 0.03162 µM,0.345
same,relative viability,[10]; first compound 0.1 µM,0.189
same,relative viability,[10]; first compound 0.3162 µM,0.123
same,relative viability,[10]; first compound 1 µM,0.105
